Data as given in ChEMBL document CHEMBL1134998, “A novel synthesis of 7-aryl-8-fluoro-pyrrolo[1,2-a]pyrimid-4-ones as potent, stable GnRH receptor antagonists” (Bioorg Med Chem Lett, 2002).

These compounds were tested against T1, Gonadotropin-releasing hormone receptor (Homo sapiens, UniProt P30968) (assay: Binding affinity towards human Gonadotropin-releasing hormone receptor).
T1 sequence (P30968 whole entry): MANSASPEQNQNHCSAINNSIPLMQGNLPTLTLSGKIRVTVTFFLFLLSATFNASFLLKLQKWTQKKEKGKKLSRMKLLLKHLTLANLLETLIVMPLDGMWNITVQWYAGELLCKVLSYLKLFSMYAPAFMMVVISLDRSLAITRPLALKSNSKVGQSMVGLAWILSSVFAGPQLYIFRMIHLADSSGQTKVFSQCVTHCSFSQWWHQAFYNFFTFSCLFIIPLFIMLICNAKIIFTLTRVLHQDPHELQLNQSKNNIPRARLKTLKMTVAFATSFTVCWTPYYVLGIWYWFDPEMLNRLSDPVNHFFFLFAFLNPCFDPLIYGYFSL

Ki [nM]	SMILES
200	CCOC(=O)c1cn(Cc2ccccc2F)c2c(F)c(-c3cccc(OC)c3)c(CN(C)CCc3ccccn3)n2c1=O
2600	CCOC(=O)c1cn(Cc2ccccc2F)c2c(F)c(-c3cccc(OC)c3)c(CN(C)Cc3ccccc3)n2c1=O
9	CCOC(=O)c1cn(Cc2ccccc2F)c2c(F)c(-c3ccc(OCC(C)C)cc3)c(CN(C)CCc3ccccn3)n2c1=O
92	CCOC(=O)c1cn(Cc2ccccc2F)c2c(F)c(-c3ccc(OCC(C)C)cc3)c(CN(C)Cc3ccco3)n2c1=O
42	CCOC(=O)c1cn(Cc2ccccc2F)c2c(F)c(-c3ccc(OCC(C)C)cc3)c(CN(C)Cc3ccccc3)n2c1=O
24000	CCOC(=O)c1cn(Cc2ccccc2F)c2c(F)c(-c3cccc(OC)c3)c(CN(C)Cc3ccco3)n2c1=O
